The source of these data is patent publication US9409952B2, “Peptide-compound cyclization method” (Chugai Seiyaku Kabushiki Kaisha, priority 2011, dated 2016).

Starred links: 1 amine or outer side, 2 acyl side, 3 side chain; linkers in the order of their positions; H or OH if unused. Positions of bridges follow the written chain, without caps; N, C: chain ends. Non-standard residues stand in square brackets, D forms with d. Residues, ends and D or L forms follow the SMILES beside them. ξ: configuration not given here. *: point of attachment. NMeF = CN[C@@H](Cc1ccccc1)C(=O)O; NMeI = CC[C@H](C)[C@H](NC)C(=O)O; NMeβAla = CN(CCC(=O)[*:2])[*:1]; NMeL = CN[C@@H](CC(C)C)C(=O)O; NMeV = CN[C@H](C(=O)O)C(C)C; NMeA = CN[C@@H](C)C(=O)O; Piperidide = C1CCN(*)CC1; dNMeA = CN[C@H](C)C(=O)O; ξL = CC(C)CC(N)C(=O)O; Sar = CNCC(=O)O

A short description of the first series: Metabolic stability in human hepatic microsome. Format: in vitro ADME. As to conditions: human, microsomes, pH 7.4, CL NADPH(+).
On to `CC[C@H](C)[C@H]1C(=O)N[C@@H](C)C(=O)N(C)[C@@H](Cc2ccccc2)C(=O)N[C@@H]([C@@H](C)O)C(=O)N(C)[C@@H](CC(C)C)C(=O)N[C@@H](Cc2ccccc2)C(=O)N(C)[C@@H](C(C)C)C(=O)N[C@H](C(=O)N2CCCCC2)CC(=O)N[C@@H](C)C(=O)NCC(=O)N(C)[C@@H](CC(C)C)C(=O)N1C` [DP-31] (AG[NMeL][NMeI]A[NMeF]T[NMeL]F[NMeV]D-Piperidide; lactam N-11), for which the microsomal CLint at 1 uM was 57 µL/min/mg.

As to `CC(C)C[C@@H]1NC(=O)[C@H](C)N(C)C(=O)[C@H](C(C)C)N(C)C(=O)[C@H](Cc2ccccc2)NC(=O)CN(C)C(=O)[C@H]([C@@H](C)O)NC(=O)[C@@H]2CCCN2C(=O)[C@H](CC(C)C)NC(=O)[C@H](C)NC(=O)C[C@@H](C(=O)N2CCCCC2)NC(=O)[C@H](CC(C)C)N(C)C1=O` [DP-32] (ALPT[Sar]F[NMeV][NMeA]L[NMeL]D-Piperidide; lactam N-11), the microsomal CLint at 1 uM worked out at 26 µL/min/mg.

Consider `CC[C@H](C)[C@@H]1NC(=O)[C@H](Cc2ccccc2)N(C)C(=O)[C@H](Cc2ccccc2)NC(=O)[C@H](CC(C)C)N(C)C(=O)[C@H](CC(C)C)NC(=O)[C@H](C)NC(=O)C[C@@H](C(=O)N2CCCCC2)NC(=O)[C@H]([C@@H](C)O)NC(=O)[C@@H]2CCCN2C1=O` [DP-33] (AL[NMeL]F[NMeF]IPTD-Piperidide; lactam N-9), for which the microsomal CLint at 1 uM was determined as 202 µL/min/mg.

Consider `CC[C@H](C)[C@@H]1NC(=O)[C@H](C)NC(=O)C[C@@H](C(=O)N2CCCCC2)NC(=O)[C@@H]2CCCN2C(=O)C(CC(C)C)NC(=O)[C@H](Cc2ccccc2)N(C)C(=O)[C@H]([C@@H](C)O)NC(=O)[C@H](Cc2ccccc2)N(C)C(=O)[C@H](C)N(C)C1=O` (stereo partly drawn) [DP-34] (AI[NMeA][NMeF]T[NMeF][ξL]PD-Piperidide; lactam N-9), for which the microsomal CLint at 1 uM is 102 µL/min/mg.

Compound `CC[C@H](C)[C@H](NC(=O)[C@H](C)NC(=O)CNC(=O)[C@@H]1CC(=O)N[C@@H](C)C(=O)N[C@@H](CC(C)C)C(=O)N[C@@H]([C@@H](C)O)C(=O)N(C)[C@@H](CC(C)C)C(=O)N[C@@H](Cc2ccccc2)C(=O)N2CCC[C@H]2C(=O)N[C@@H](C(C)C)C(=O)N[C@@H](Cc2ccccc2)C(=O)N(C)[C@@H](CC(C)C)C(=O)N1)C(=O)N1CCCCC1` [DP-42] (ALT[NMeL]FPVF[NMeL]DGAI-Piperidide; lactam N-10) returned a microsomal CLint at 1 uM of 17 µL/min/mg.

Compound `CC[C@H](C)[C@H](NC(=O)[C@H](CC(C)C)N(C)C(=O)[C@@H]1CC(=O)N[C@@H](C)C(=O)N[C@@H](Cc2ccccc2)C(=O)N2CCC[C@H]2C(=O)N[C@@H](CC(C)C)C(=O)N[C@@H]([C@@H](C)O)C(=O)N[C@@H](CC(C)C)C(=O)N[C@@H](Cc2ccccc2)C(=O)N(C)[C@@H](C(C)C)C(=O)N[C@@H](C)C(=O)N1)C(=O)N1CCCCC1` [DP-43] (AFPLTLF[NMeV]AD[NMeL]I-Piperidide; lactam N-10) returned a microsomal CLint at 1 uM of 44 µL/min/mg.

Compound `CC[C@H](C)[C@H](NC(=O)[C@@H]1CCCN1C(=O)[C@@H](NC(=O)[C@@H]1CC(=O)N[C@@H](C)C(=O)N[C@@H](CC(C)C)C(=O)N(C)[C@@H](CC(C)C)C(=O)N[C@@H](C)C(=O)N[C@@H](CC(C)C)C(=O)N(C)[C@@H](Cc2ccccc2)C(=O)N[C@@H](Cc2ccccc2)C(=O)N1)[C@@H](C)O)C(=O)N1CCCCC1` [DP-45] (AL[NMeL]AL[NMeF]FDTPI-Piperidide; lactam N-8) yielded a microsomal CLint at 1 uM of 129 µL/min/mg.

Take `CC[C@H](C)[C@H](NC(=O)[C@H](CC(C)C)N(C)C(=O)[C@@H](NC(=O)[C@@H]1CC(=O)N[C@@H](C)C(=O)N[C@@H](CC(C)C)C(=O)N[C@@H]([C@@H](C)O)C(=O)N(C)[C@@H](Cc2ccccc2)C(=O)N[C@@H](Cc2ccccc2)C(=O)N(C)[C@@H](C)C(=O)N1)C(C)C)C(=O)N1CCCCC1` [DP-46] (ALT[NMeF]F[NMeA]DV[NMeL]I-Piperidide; lactam N-7): the microsomal CLint at 1 uM was 249 µL/min/mg.

Still in this series, the particulars now being: microsomes, pH 7.4; human hepatic microsome, NADPH(+); read-out: CL NADPH(+).
Turning to `CC(C)C[C@@H]1NC(=O)[C@H](C)NC(=O)C[C@@H](C(=O)N2CCCCC2)NC(=O)[C@H](CC(C)C)N(C)C(=O)[C@H](C)NC(=O)[C@H](CC(C)C)NC(=O)[C@H](C(C)C)NC(=O)CNC(=O)[C@H](Cc2ccccc2)NC(=O)[C@H](C)N(C)C(=O)[C@H](CC(C)C)NC(=O)[C@H]([C@@H](C)O)NC(=O)[C@H](Cc2ccccc2)NC1=O` [DP-82] (ALFTL[NMeA]FGVLA[NMeL]D-Piperidide; lactam N-13), the microsomal CLint at 1 uM stood at 16 µL/min/mg.

Take `CC[C@H](C)[C@@H]1NC(=O)[C@H](Cc2ccccc2)N(C)C(=O)[C@H](Cc2ccccc2)NC(=O)[C@H](CC(C)C)N(C)C(=O)[C@H](C(C)C)NC(=O)[C@H](CC(C)C)NC(=O)[C@H](C)N(C)C(=O)CNC(=O)[C@H](C)NC(=O)C[C@@H](C(=O)N2CCCCC2)NC(=O)[C@H]([C@@H](C)O)NC(=O)[C@H](CC(C)C)NC(=O)[C@H](C)N(C)C1=O` [DP-83] (AG[NMeA]LV[NMeL]F[NMeF]I[NMeA]LTD-Piperidide; lactam N-13): the microsomal CLint at 1 uM was found to be 39 µL/min/mg.

On to `CC[C@H](C)[C@@H]1NC(=O)[C@H](C)N(C)C(=O)[C@H](Cc2ccccc2)NC(=O)[C@H](Cc2ccccc2)NC(=O)[C@H](CC(C)C)NC(=O)[C@H](C(C)C)N(C)C(=O)[C@H](CC(C)C)NC(=O)[C@H](C)NC(=O)[C@H](C)NC(=O)C[C@@H](C(=O)N2CCCCC2)NC(=O)CNC(=O)[C@H]([C@@H](C)O)NC1=O` [DP-84] (AAL[NMeV]LFF[NMeA]ITGD-Piperidide; lactam N-12), for which the microsomal CLint at 1 uM was 21 µL/min/mg.

With `CC[C@H](C)[C@@H]1NC(=O)[C@H](Cc2ccccc2)N(C)C(=O)[C@H](Cc2ccccc2)NC(=O)[C@H](C(C)C)N(C)C(=O)[C@H](CC(C)C)N(C)C(=O)[C@H](CC(C)C)NC(=O)[C@H](C)NC(=O)C[C@@H](C(=O)N2CCCCC2)NC(=O)[C@H]([C@@H](C)O)NC(=O)CNC(=O)[C@H](C)N(C)C1=O` [DP-85] (AL[NMeL][NMeV]F[NMeF]I[NMeA]GTD-Piperidide; lactam N-11), the microsomal CLint at 1 uM was found to be 58 µL/min/mg.

As for `CC[C@H](C)[C@@H]1NC(=O)[C@H](Cc2ccccc2)N(C)C(=O)[C@H](Cc2ccccc2)NC(=O)[C@H](CC(C)C)N(C)C(=O)[C@H](CC(C)C)NC(=O)[C@H](C)NC(=O)C[C@@H](C(=O)N2CCCCC2)NC(=O)[C@H]([C@@H](C)O)NC(=O)[C@H](C)N(C)C1=O` [DP-86] (AL[NMeL]F[NMeF]I[NMeA]TD-Piperidide; lactam N-9), the microsomal CLint at 1 uM was 237 µL/min/mg.

Turning to `CC[C@H](C)[C@@H]1NC(=O)[C@H](C)NC(=O)[C@H](CC(C)C)N(C)C(=O)[C@H](CC(C)C)NC(=O)[C@H](Cc2ccccc2)NC(=O)[C@H](C(C)C)NC(=O)[C@H](C)N(C)C(=O)[C@H](CC(C)C)NC(=O)[C@H](Cc2ccccc2)N(C)C(=O)[C@H]([C@@H](C)O)NC(=O)CNC(=O)[C@H](C)NC(=O)C[C@@H](C(=O)N2CCCCC2)NC1=O` [DP-87] (AGT[NMeF]L[NMeA]VFL[NMeL]AID-Piperidide; lactam N-13), the microsomal CLint at 1 uM came out at 120 µL/min/mg.

Regarding `CC(C)C[C@H]1C(=O)N(C)[C@@H](Cc2ccccc2)C(=O)N[C@@H](C)C(=O)N2CCC[C@H]2C(=O)N(C)[C@@H](CC(C)C)C(=O)N(C)[C@@H](Cc2ccccc2)C(=O)N(C)[C@@H](C(C)C)C(=O)N[C@H](C(=O)N2CCCCC2)CC(=O)N[C@H](C)C(=O)N[C@@H]([C@@H](C)O)C(=O)N(C)CC(=O)N1C` [DP-141] ([dA]T[Sar][NMeL][NMeF]AP[NMeL][NMeF][NMeV]D-Piperidide; lactam N-11), the microsomal CLint at 1 uM was 77 µL/min/mg.

Turning to `CC[C@H](C)[C@@H]1NC(=O)[C@H](C)NC(=O)C[C@@H](C(=O)N2CCCCC2)NC(=O)[C@H](Cc2ccccc2)NC(=O)[C@H](C)NC(=O)[C@H]([C@@H](C)O)NC(=O)[C@H](Cc2ccccc2)NC(=O)[C@H](CC(C)C)N(C)C(=O)[C@H](CC(C)C)NC(=O)[C@H](Cc2ccccc2)NC(=O)[C@H](CC(C)C)NC1=O` [DP-320] (AILFL[NMeL]FTAFD-Piperidide; lactam N-11), the microsomal CLint at 1 uM is 36 µL/min/mg.

On to `CC[C@H](C)[C@@H]1NC(=O)[C@H](CC(C)C)N(C)C(=O)[C@H](Cc2ccccc2)NC(=O)[C@H](CC(C)C)N(C)C(=O)[C@H](CC(C)C)NC(=O)[C@H](Cc2ccccc2)NC(=O)[C@H]([C@@H](C)O)NC(=O)[C@H](C)N(C)C(=O)[C@H](CC(C)C)NC(=O)CCN(C)C(=O)C[C@@H](C(=O)N2CCCCC2)NC1=O` [DP-325] ([NMeβAla]L[NMeA]TFL[NMeL]F[NMeL]ID-Piperidide; lactam N-11), for which the microsomal CLint at 1 uM came to 99 µL/min/mg.

For `CC(C)C[C@@H]1NC(=O)CN(C)C(=O)[C@H](C)NC(=O)[C@H]([C@@H](C)O)NC(=O)[C@@H](C)N(C)C(=O)C[C@@H](C(=O)N2CCCCC2)NC(=O)[C@H](CC(C)C)N(C)C(=O)[C@H](CC(C)C)NC(=O)[C@H](C(C)C)N(C)C(=O)[C@H](CC(C)C)NC(=O)[C@H](Cc2ccccc2)NC1=O` [DP-328] ([dNMeA]TA[Sar]LFL[NMeV]L[NMeL]D-Piperidide; lactam N-11), the microsomal CLint at 1 uM was 32 µL/min/mg.

For `CC[C@H](C)[C@@H]1NC(=O)[C@H](C(C)C)N(C)C(=O)[C@H](Cc2ccccc2)N(C)C(=O)[C@H](Cc2ccccc2)NC(=O)[C@H](CC(C)C)N(C)C(=O)[C@H](C)N(C)C(=O)[C@H]([C@@H](C)O)NC(=O)[C@H](C)N(C)C(=O)C[C@@H](C(=O)N2CCCCC2)NC(=O)[C@H](CC(C)C)N(C)C1=O` [DP-333] ([NMeA]T[NMeA][NMeL]F[NMeF][NMeV]I[NMeL]D-Piperidide; lactam N-10), the microsomal CLint at 1 uM worked out at 157 µL/min/mg.

In the case of `CC(C)C[C@@H]1NC(=O)[C@H](Cc2ccccc2)NC(=O)[C@H](CC(C)C)N(C)C(=O)[C@H](Cc2ccccc2)NC(=O)[C@@H](C)N(C)C(=O)C[C@@H](C(=O)N2CCCCC2)NC(=O)[C@H](Cc2ccccc2)N(C)C(=O)CNC(=O)[C@H]([C@@H](C)O)NC(=O)[C@H](CC(C)C)NC1=O` [DP-486] ([dNMeA]F[NMeL]FLLTG[NMeF]D-Piperidide; lactam N-10), the microsomal CLint at 1 uM amounted to 87 µL/min/mg.

Take `CC[C@H](C)[C@@H]1NC(=O)[C@H](C(C)C)N(C)C(=O)[C@H](C)N(C)C(=O)C[C@@H](C(=O)N2CCCCC2)NC(=O)[C@H](CC(C)C)NC(=O)[C@H](Cc2ccccc2)N(C)C(=O)[C@H](CC(C)C)N(C)C(=O)[C@H](CC(C)C)NC(=O)[C@H]([C@@H](C)O)NC(=O)[C@H](Cc2ccccc2)NC1=O` [DP-488] ([NMeA][NMeV]IFTL[NMeL][NMeF]LD-Piperidide; lactam N-10): the microsomal CLint at 1 uM is 261 µL/min/mg.
